The source of these data is ChEMBL document CHEMBL3217454, “Structureactivity relationship studies using peptide arrays: the example of HIV-1 Revintegrase interaction” (Medchemcomm, 2013).

Assay [1] relates to Human immunodeficiency virus 1. Briefly: Binding affinity to HLT-tagged HIV-1 Rev measured after overnight incubation by chemiluminescence analysis relative to IN 118-128. On the set-up: concentration or dose not given beside the values.
The target in assay [2] is Human immunodeficiency virus type 1 integrase (Human immunodeficiency virus 1) (UniProt Q7ZJM1). Briefly: Binding affinity to HIV-1 integrase measured after overnight incubation by chemiluminescence analysis relative to IN 118-128. On the set-up: concentration or dose not given beside the values.

Square brackets hold non-standard residues; d marks the D form. Peptide text beside a SMILES is read from it. NMeF = CN[C@@H](Cc1ccccc1)C(=O)O; NMeT = CN[C@H](C(=O)O)[C@@H](C)O; NMeV = CN[C@H](C(=O)O)C(C)C; NMeS = CN[C@@H](CO)C(=O)O; Sar = CNCC(=O)O

Sequence of Human immunodeficiency virus type 1 integrase (Human immunodeficiency virus 1) (Q7ZJM1 as listed by the source): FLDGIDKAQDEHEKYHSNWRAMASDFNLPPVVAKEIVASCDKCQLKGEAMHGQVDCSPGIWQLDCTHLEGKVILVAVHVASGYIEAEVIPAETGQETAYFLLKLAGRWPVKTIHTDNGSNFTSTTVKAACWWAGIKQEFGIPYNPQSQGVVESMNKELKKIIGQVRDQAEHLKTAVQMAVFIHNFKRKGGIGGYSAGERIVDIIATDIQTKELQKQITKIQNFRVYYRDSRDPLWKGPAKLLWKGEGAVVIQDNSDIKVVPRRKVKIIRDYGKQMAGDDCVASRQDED

On to `CC(C)[C@@H](NC(=O)[C@@H](NC(=O)[C@@H](NC(=O)[C@H](CO)NC(=O)[C@@H](NC(=O)[C@H](Cc1ccccc1)NC(=O)[C@H](CC(N)=O)NC(=O)[C@H](CO)NC(=O)CN)[C@@H](C)O)[C@@H](C)O)[C@@H](C)O)C(=O)N[C@@H](CCCCN)C(=O)N[C@@H](C)C(=O)O`, for which the Activity was 107% in assay [1] and 97% in assay [2].
On the same counts, the results for `CC(C)[C@H](NC(=O)[C@@H](NC(=O)[C@@H](NC(=O)[C@@H](N)CO)[C@@H](C)O)[C@@H](C)O)C(=O)N[C@@H](CCCCN)C(=O)N[C@@H](C)C(=O)O` (H-STTVKA-OH) are 187% and 144%.
As to `CC(C)[C@H](NC(=O)[C@@H](NC(=O)[C@@H](NC(=O)[C@H](CO)NC(=O)[C@@H](NC(=O)[C@H](Cc1ccccc1)NC(=O)[C@H](CC(N)=O)NC(=O)[C@H](CO)NC(=O)CN)[C@@H](C)O)[C@@H](C)O)[C@@H](C)O)C(=O)N[C@@H](CCCCN)C(=O)O` (H-GSNFTSTTVK-OH), the Activity in assay [1] came to 201%; in assay [2] it was 242%.
On the same counts, the results for `C[C@H](NC(=O)[C@H](CCCCN)NC(=O)[C@H](C)NC(=O)[C@@H](NC(=O)[C@@H](NC(=O)[C@H](CO)NC(=O)[C@@H](NC(=O)[C@H](Cc1ccccc1)NC(=O)[C@H](CC(N)=O)NC(=O)[C@H](CO)NC(=O)CN)[C@@H](C)O)[C@@H](C)O)[C@@H](C)O)C(=O)O` (H-GSNFTSTTAKA-OH) are 64% and 129%.
Taken in the same sequence, the figures for `CC(C)[C@H](NC(=O)[C@@H](NC(=O)[C@@H](NC(=O)[C@H](CO)NC(=O)[C@@H](NC(=O)[C@H](Cc1ccccc1)NC(=O)[C@H](CC(N)=O)NC(=O)[C@H](CO)NC(=O)CN)[C@@H](C)O)[C@@H](C)O)[C@@H](C)O)C(=O)N[C@@H](CCCCN)C(=O)N[C@H](C)C(=O)O` were 137% and 136%.
Taken in the same sequence, the figures for `CC(C)[C@H](NC(=O)[C@H](C)NC(=O)[C@@H](NC(=O)[C@H](CO)NC(=O)[C@@H](NC(=O)[C@H](Cc1ccccc1)NC(=O)[C@H](CC(N)=O)NC(=O)[C@H](CO)NC(=O)CN)[C@@H](C)O)[C@@H](C)O)C(=O)N[C@@H](CCCCN)C(=O)N[C@@H](C)C(=O)O` (H-GSNFTSTAVKA-OH) were 124% and 182%.
As for `CC(C)[C@H](NC(=O)[C@@H](NC(=O)[C@@H](NC(=O)[C@H](CO)NC(=O)[C@@H](NC(=O)[C@H](Cc1ccccc1)NC(=O)[C@H](CC(N)=O)NC(=O)[C@H](C)NC(=O)CN)[C@@H](C)O)[C@@H](C)O)[C@@H](C)O)C(=O)N[C@@H](CCCCN)C(=O)N[C@@H](C)C(=O)O` (H-GANFTSTTVKA-OH), the Activity in assay [1] worked out at 146%; in assay [2], 177%.
On the same counts, the results for `CC(C)[C@H](NC(=O)[C@@H](NC(=O)[C@@H](NC(=O)[C@H](CO)NC(=O)[C@@H](NC(=O)[C@H](Cc1ccccc1)N(C)C(=O)[C@H](CC(N)=O)NC(=O)[C@H](CO)NC(=O)CN)[C@@H](C)O)[C@@H](C)O)[C@@H](C)O)C(=O)N[C@@H](CCCCN)C(=O)N[C@@H](C)C(=O)O` (H-GSN[NMeF]TSTTVKA-OH) are 177% and 195%.
Taken in the same sequence, the figures for `CC(C)[C@H](NC(=O)[C@@H](NC(=O)[C@@H](NC(=O)[C@H](CO)NC(=O)[C@H]([C@@H](C)O)N(C)C(=O)[C@H](Cc1ccccc1)NC(=O)[C@H](CC(N)=O)NC(=O)[C@H](CO)NC(=O)CN)[C@@H](C)O)[C@@H](C)O)C(=O)N[C@@H](CCCCN)C(=O)N[C@@H](C)C(=O)O` (H-GSNF[NMeT]STTVKA-OH) were 200% and 165%.
Taken in the same sequence, the figures for `CC(C)[C@H](NC(=O)[C@@H](NC(=O)[C@@H](NC(=O)[C@H](CO)NC(=O)[C@@H](NC(=O)[C@H](Cc1ccccc1)NC(=O)[C@H](CC(N)=O)NC(=O)[C@@H](CO)NC(=O)CN)[C@@H](C)O)[C@@H](C)O)[C@@H](C)O)C(=O)N[C@@H](CCCCN)C(=O)N[C@@H](C)C(=O)O` were 190% and 346%.
For `CC(C)[C@H](NC(=O)[C@@H](NC(=O)[C@@H](NC(=O)[C@H](CO)NC(=O)[C@H](C)NC(=O)[C@H](Cc1ccccc1)NC(=O)[C@H](CC(N)=O)NC(=O)[C@H](CO)NC(=O)CN)[C@@H](C)O)[C@@H](C)O)C(=O)N[C@@H](CCCCN)C(=O)N[C@@H](C)C(=O)O` (H-GSNFASTTVKA-OH), the Activity in assay [1] was 120%; in assay [2] it was 228%.
On the same counts, the results for `CC(C)[C@H](NC(=O)[C@@H](NC(=O)[C@@H](NC(=O)[C@H](CO)NC(=O)[C@@H](NC(=O)[C@H](Cc1ccccc1)NC(=O)[C@H](CC(N)=O)NC(=O)[C@H](CO)NC(=O)CN)[C@@H](C)O)[C@@H](C)O)[C@@H](C)O)C(=O)N[C@@H](C)C(=O)N[C@@H](C)C(=O)O` (H-GSNFTSTTVAA-OH) are 0% and 85%.
On to `CC(C)[C@H](NC(=O)[C@@H](NC(=O)[C@H]([C@@H](C)O)N(C)C(=O)[C@H](CO)NC(=O)[C@@H](NC(=O)[C@H](Cc1ccccc1)NC(=O)[C@H](CC(N)=O)NC(=O)[C@H](CO)NC(=O)CN)[C@@H](C)O)[C@@H](C)O)C(=O)N[C@@H](CCCCN)C(=O)N[C@@H](C)C(=O)O` (H-GSNFTS[NMeT]TVKA-OH), for which the Activity in assay [1] is 197%; in assay [2], 249%.
On the same counts, the results for `CC(C)[C@H](NC(=O)[C@@H](NC(=O)[C@@H](NC(=O)[C@H](CO)NC(=O)[C@@H](N)[C@@H](C)O)[C@@H](C)O)[C@@H](C)O)C(=O)N[C@@H](CCCCN)C(=O)N[C@@H](C)C(=O)O` (H-TSTTVKA-OH) are 111% and 135%.
On the same counts, the results for `CC(C)[C@H](NC(=O)[C@@H](NC(=O)[C@@H](NC(=O)[C@H](CO)NC(=O)[C@@H](NC(=O)[C@H](Cc1ccccc1)NC(=O)[C@H](CC(N)=O)NC(=O)[C@H](CO)NC(=O)CN)[C@@H](C)O)[C@@H](C)O)[C@@H](C)O)C(=O)O` (H-GSNFTSTTV-OH) are 0% and 27%.
On the same counts, the results for `CC(C)[C@H](NC(=O)[C@@H](NC(=O)[C@@H](NC(=O)[C@H](CO)NC(=O)[C@@H](NC(=O)[C@@H](Cc1ccccc1)NC(=O)[C@H](CC(N)=O)NC(=O)[C@H](CO)NC(=O)CN)[C@@H](C)O)[C@@H](C)O)[C@@H](C)O)C(=O)N[C@@H](CCCCN)C(=O)N[C@@H](C)C(=O)O` are 211% and 229%.
For the molecule `CNCC(=O)N[C@@H](CO)C(=O)N[C@@H](CC(N)=O)C(=O)N[C@@H](Cc1ccccc1)C(=O)N[C@H](C(=O)N[C@@H](CO)C(=O)N[C@H](C(=O)N[C@H](C(=O)N[C@H](C(=O)N[C@@H](CCCCN)C(=O)N[C@@H](C)C(=O)O)C(C)C)[C@@H](C)O)[C@@H](C)O)[C@@H](C)O` (H-[Sar]SNFTSTTVKA-OH), the Activity in assay [1] turned out to be 294%; in assay [2], 181%.
On the same counts, the results for `CC(C)[C@H](NC(=O)[C@@H](NC(=O)[C@@H](NC(=O)[C@H](CO)N(C)C(=O)[C@@H](NC(=O)[C@H](Cc1ccccc1)NC(=O)[C@H](CC(N)=O)NC(=O)[C@H](CO)NC(=O)CN)[C@@H](C)O)[C@@H](C)O)[C@@H](C)O)C(=O)N[C@@H](CCCCN)C(=O)N[C@@H](C)C(=O)O` (H-GSNFT[NMeS]TTVKA-OH) are 279% and 312%.
Regarding `CC(C)[C@H](NC(=O)[C@@H](NC(=O)[C@@H](NC(=O)[C@H](CO)NC(=O)[C@@H](NC(=O)[C@@H](N)Cc1ccccc1)[C@@H](C)O)[C@@H](C)O)[C@@H](C)O)C(=O)N[C@@H](CCCCN)C(=O)N[C@@H](C)C(=O)O` (H-FTSTTVKA-OH), the Activity in assay [1] was determined as 280%; in assay [2], 236%.
Take `CC(C)[C@@H](C(=O)N[C@@H](CCCCN)C(=O)N[C@@H](C)C(=O)O)N(C)C(=O)[C@@H](NC(=O)[C@@H](NC(=O)[C@H](CO)NC(=O)[C@@H](NC(=O)[C@H](Cc1ccccc1)NC(=O)[C@H](CC(N)=O)NC(=O)[C@H](CO)NC(=O)CN)[C@@H](C)O)[C@@H](C)O)[C@@H](C)O` (H-GSNFTSTT[NMeV]KA-OH): the Activity was determined as 215% in assay [1] and 273% in assay [2].
Regarding `CC(C)[C@H](NC(=O)[C@@H](NC(=O)[C@@H](NC(=O)[C@H](C)NC(=O)[C@@H](NC(=O)[C@H](Cc1ccccc1)NC(=O)[C@H](CC(N)=O)NC(=O)[C@H](CO)NC(=O)CN)[C@@H](C)O)[C@@H](C)O)[C@@H](C)O)C(=O)N[C@@H](CCCCN)C(=O)N[C@@H](C)C(=O)O` (H-GSNFTATTVKA-OH), the Activity in assay [1] is 182%; in assay [2], 135%.
On the same counts, the results for `CC(C)[C@H](NC(=O)[C@@H](NC(=O)[C@@H](NC(=O)[C@H](CO)NC(=O)[C@@H](NC(=O)[C@H](Cc1ccccc1)NC(=O)[C@H](CC(N)=O)NC(=O)[C@H](CO)NC(=O)CN)[C@@H](C)O)[C@@H](C)O)[C@@H](C)O)C(=O)N[C@H](CCCCN)C(=O)N[C@@H](C)C(=O)O` are 53% and 109%.
For the molecule `CC(C)[C@H](NC(=O)[C@@H](NC(=O)[C@@H](NC(=O)[C@H](CO)NC(=O)[C@@H](NC(=O)[C@H](Cc1ccccc1)NC(=O)[C@@H](N)CC(N)=O)[C@@H](C)O)[C@@H](C)O)[C@@H](C)O)C(=O)N[C@@H](CCCCN)C(=O)N[C@@H](C)C(=O)O` (H-NFTSTTVKA-OH), the values for the Activity in assay [1] and in assay [2] were 152% and 119%, respectively.
On the same counts, the results for `CC(C)[C@H](NC(=O)[C@H](NC(=O)[C@@H](NC(=O)[C@H](CO)NC(=O)[C@@H](NC(=O)[C@H](Cc1ccccc1)NC(=O)[C@H](CC(N)=O)NC(=O)[C@H](CO)NC(=O)CN)[C@@H](C)O)[C@@H](C)O)[C@@H](C)O)C(=O)N[C@@H](CCCCN)C(=O)N[C@@H](C)C(=O)O` are 60% and 85%.
As for `CC(C)[C@H](NC(=O)[C@@H](NC(=O)[C@@H](NC(=O)[C@H](CO)NC(=O)[C@@H](NC(=O)[C@H](Cc1ccccc1)NC(=O)[C@H](C)NC(=O)[C@H](CO)NC(=O)CN)[C@@H](C)O)[C@@H](C)O)[C@@H](C)O)C(=O)N[C@@H](CCCCN)C(=O)N[C@@H](C)C(=O)O` (H-GSAFTSTTVKA-OH), the figures for the Activity in assay [1] and in assay [2] were 151% and 198%, respectively.
